Assay [1] has as its system CCRF-CEM. Briefly: Cytotoxicity against human CCRF-CEM cells assessed as reduction in cell viability after 72 hrs by resazurin reduction assay. The class given is functional, cell-based.
The nature of assay [2]: Resistance index, ratio of IC50 for human CEM/ADR5000 cells to IC50 for human CCRF-CEM cells. The class given is functional.
Assay [3] has as its system CCRF-CEM. Briefly: Cell cycle arrest in human CCRF-CEM cells assessed as accumulation at G2/M phase at 0.055 to 0.44 uM after 6 to 72 hrs by propidium iodide staining-based flow cytometry. Format: functional.
Assay [4] deals with CCRF-CEM. The assay can be described thus: Cell cycle arrest in human CCRF-CEM cells assessed as accumulation at SubG1 phase at 0.055 to 0.44 uM after 72 hrs by propidium iodide staining-based flow cytometry. The class given is functional. Background: In flow cytometry, cells or beads pass a laser one at a time.
For assay [5], the system named is CCRF-CEM. The assay can be described thus: Cell cycle arrest in human CCRF-CEM cells assessed as accumulation at S phase at 0.055 to 0.44 uM after 6 to 72 hrs by propidium iodide staining-based flow cytometry. The class given is functional.
For a further assay, the system named is ADR5000 cell line. The assay can be described thus: Cytotoxicity against human CEM/ADR5000 cells assessed as reduction in cell viability after 72 hrs by resazurin reduction assay. Format: functional, cell-based. The conditions noted are these: ADR5000, 72 h. On the technique in general: Resazurin is reduced to fluorescent resorufin, in cell work by metabolically active cells.

Assay [6] concerns CCRF-CEM. Briefly: Induction of apoptosis in human CCRF-CEM cells at 0.055 to 0.44 uM after 24 to 72 hrs by propidium iodide staining-based flow cytometry. The class given is functional, cell-based.
Assay [7] concerns CCRF-CEM. The assay can be described thus: Cell cycle arrest in human CCRF-CEM cells assessed as accumulation at G2/M phase after 24 hrs by propidium iodide staining-based flow cytometry. Format: functional.
The subject of assay [8] is CCRF-CEM. The assay can be described thus: Induction of apoptosis in human CCRF-CEM cells at 0.01 uM after 72 hrs by propidium iodide staining-based flow cytometry. The class given is functional, cell-based.
Assay [9] concerns CCRF-CEM. Briefly: Cell cycle arrest in human CCRF-CEM cells assessed as accumulation at S phase at 0.01 uM after 6 hrs by propidium iodide staining-based flow cytometry. Format: functional.

Molecules are shown by their SMILES. pIC50: −log10 of the molar value. The source made the active and inactive calls. The calls are words filed in the database; no cut-off is given here.

As a reminder, the pIC50 is −log10 of the IC50, conventionally taken in molar units.

Consider `COc1cc(-c2c3c(n4ccc5cc(O)c(OC)cc5c24)C(=O)c2cc(O)c(OC)cc2-3)ccc1O`, for which the pIC50 in the assay on CCRF-CEM [1] was 6.95; in the assay on ADR5000 cell line, 6.76. The “Ratio IC50” value in [2] is on record as 1.5. Also, the outcome with CCRF-CEM [3] and in the assay with CCRF-CEM [5] was inactive. Further, the result with CCRF-CEM [4] and with CCRF-CEM [6] was Active.
In the case of `CC[C@@]1(O)C(=O)OCc2c1cc1n(c2=O)Cc2cc3ccccc3nc2-1` [CAMPTOTHECIN], the pIC50 is 8.52 with CCRF-CEM [1] and 7.96 in the assay with ADR5000 cell line. Also, the “Ratio IC50” value in assay [2] amounted to 3.7. Moreover, in the assay on CCRF-CEM [7], the Activity result is “Dose-dependent effect”. Also, the outcome in the assay with CCRF-CEM [8] and in the assay with CCRF-CEM [9] was Active.

The record behind these values is ChEMBL document CHEMBL4177527, “Synthesis and biological evaluation of a D-ring-contracted analogue of lamellarin D” (Bioorg Med Chem, 2017).
